Measured values: the kinase profiling compilation of Christmann-Franck et al. (2016)
Where “and” joins values, the source holds several entries; their conditions need not be identical. Identical values can stand only once.

What was measured:
Test in all cases: radiometric filter-binding kinase assay, Kinase HotSpot
Conditions in all cases: compound 0.5 µM; ATP 10 µM
[1] = molecular target: JAK2 JH1 JH2 (human) (UniProt O60674)
[2] = molecular target: TGFBR1 (human) (UniProt P36897)
[3] = molecular target: TEC (human) (UniProt P42680)
[4] = molecular target: AKT3 (human) (UniProt Q9Y243)
Sequence of AKT3 (human) (Q9Y243 whole entry, looked up): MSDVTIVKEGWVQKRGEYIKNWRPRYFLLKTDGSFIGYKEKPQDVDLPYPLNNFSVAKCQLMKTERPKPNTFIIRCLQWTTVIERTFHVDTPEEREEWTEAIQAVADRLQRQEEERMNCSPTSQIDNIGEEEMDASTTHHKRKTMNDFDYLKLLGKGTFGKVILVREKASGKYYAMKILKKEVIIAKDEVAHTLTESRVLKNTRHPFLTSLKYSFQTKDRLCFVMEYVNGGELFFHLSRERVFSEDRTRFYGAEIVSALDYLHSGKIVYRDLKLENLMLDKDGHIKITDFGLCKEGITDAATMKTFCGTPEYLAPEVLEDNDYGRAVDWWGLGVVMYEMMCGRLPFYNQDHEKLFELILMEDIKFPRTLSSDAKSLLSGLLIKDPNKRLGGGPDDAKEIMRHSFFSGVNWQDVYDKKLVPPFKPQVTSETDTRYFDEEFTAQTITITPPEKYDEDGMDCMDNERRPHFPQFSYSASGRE

[5] = molecular target: PRKG1 (human) (UniProt Q13976)
Sequence of PRKG1 (human) (Q13976 whole entry, looked up): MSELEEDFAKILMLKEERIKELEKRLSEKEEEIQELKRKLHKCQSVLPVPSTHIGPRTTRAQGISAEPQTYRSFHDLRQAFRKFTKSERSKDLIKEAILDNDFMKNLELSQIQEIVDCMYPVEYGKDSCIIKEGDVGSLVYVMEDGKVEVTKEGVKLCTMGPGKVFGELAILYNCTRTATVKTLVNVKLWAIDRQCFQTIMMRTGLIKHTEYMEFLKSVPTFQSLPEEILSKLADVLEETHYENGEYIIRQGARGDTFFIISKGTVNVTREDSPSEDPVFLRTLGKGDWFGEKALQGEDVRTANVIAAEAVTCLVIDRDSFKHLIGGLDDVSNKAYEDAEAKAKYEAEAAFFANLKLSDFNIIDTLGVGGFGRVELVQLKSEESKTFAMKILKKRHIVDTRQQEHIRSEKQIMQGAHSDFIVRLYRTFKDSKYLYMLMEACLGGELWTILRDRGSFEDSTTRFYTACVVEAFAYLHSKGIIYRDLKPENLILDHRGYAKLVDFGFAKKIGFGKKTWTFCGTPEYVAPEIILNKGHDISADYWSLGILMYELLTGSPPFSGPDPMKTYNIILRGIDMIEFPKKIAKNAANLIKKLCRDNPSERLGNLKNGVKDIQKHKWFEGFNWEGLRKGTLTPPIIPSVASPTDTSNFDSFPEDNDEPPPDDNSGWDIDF

[6] = molecular target: JAK1 JH1 catalytic (human) (UniProt P23458)
[7] = molecular target: DYRK2 (human) (UniProt Q92630)
[8] = molecular target: CHUK (human) (UniProt O15111)
[9] = molecular target: NTRK3 (human) (UniProt Q16288)
[10] = molecular target: PAK4 (human) (UniProt O96013)
[11] = molecular target: EPHB4 (human) (UniProt P54760)
[12] = molecular target: CSNK1G1 (human) (UniProt Q9HCP0)
[13] = molecular target: INSRR (human) (UniProt P14616)
[14] = molecular target: ERBB2 (human) (UniProt P04626)
[15] = molecular target: PTK2B (human) (UniProt Q14289)
Sequence of PTK2B (human) (Q14289 whole entry, looked up): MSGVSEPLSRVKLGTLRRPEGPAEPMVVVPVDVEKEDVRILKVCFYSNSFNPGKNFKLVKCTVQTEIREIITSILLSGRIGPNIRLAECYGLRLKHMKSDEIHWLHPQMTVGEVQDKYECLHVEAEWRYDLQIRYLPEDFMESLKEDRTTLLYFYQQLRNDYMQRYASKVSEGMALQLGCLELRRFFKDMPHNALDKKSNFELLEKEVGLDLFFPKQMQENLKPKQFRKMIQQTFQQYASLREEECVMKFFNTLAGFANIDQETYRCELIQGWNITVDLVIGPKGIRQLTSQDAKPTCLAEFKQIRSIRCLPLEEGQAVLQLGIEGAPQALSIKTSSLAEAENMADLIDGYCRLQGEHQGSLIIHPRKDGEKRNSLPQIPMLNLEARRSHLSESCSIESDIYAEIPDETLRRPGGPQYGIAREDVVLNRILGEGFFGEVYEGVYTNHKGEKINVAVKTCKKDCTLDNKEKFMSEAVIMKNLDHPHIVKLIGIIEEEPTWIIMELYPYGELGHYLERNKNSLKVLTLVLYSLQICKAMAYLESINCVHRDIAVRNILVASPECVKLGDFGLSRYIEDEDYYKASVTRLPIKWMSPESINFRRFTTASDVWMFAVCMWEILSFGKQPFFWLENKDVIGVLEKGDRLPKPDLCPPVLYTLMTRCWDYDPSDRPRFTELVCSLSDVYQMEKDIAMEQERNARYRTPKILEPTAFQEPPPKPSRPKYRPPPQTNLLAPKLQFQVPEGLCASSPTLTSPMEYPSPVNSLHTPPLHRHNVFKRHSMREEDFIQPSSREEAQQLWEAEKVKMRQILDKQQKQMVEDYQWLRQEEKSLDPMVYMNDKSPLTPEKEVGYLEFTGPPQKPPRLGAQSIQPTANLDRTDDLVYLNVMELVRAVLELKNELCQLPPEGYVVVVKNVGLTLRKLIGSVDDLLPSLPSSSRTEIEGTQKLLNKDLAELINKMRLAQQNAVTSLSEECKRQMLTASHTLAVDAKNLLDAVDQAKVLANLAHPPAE

[16] = molecular target: ACVR1 (human) (UniProt Q04771)
[17] = molecular target: PLK3 (human) (UniProt Q9H4B4)
[18] = molecular target: NEK2 (human) (UniProt P51955)
Sequence of NEK2 (human) (P51955 whole entry, looked up): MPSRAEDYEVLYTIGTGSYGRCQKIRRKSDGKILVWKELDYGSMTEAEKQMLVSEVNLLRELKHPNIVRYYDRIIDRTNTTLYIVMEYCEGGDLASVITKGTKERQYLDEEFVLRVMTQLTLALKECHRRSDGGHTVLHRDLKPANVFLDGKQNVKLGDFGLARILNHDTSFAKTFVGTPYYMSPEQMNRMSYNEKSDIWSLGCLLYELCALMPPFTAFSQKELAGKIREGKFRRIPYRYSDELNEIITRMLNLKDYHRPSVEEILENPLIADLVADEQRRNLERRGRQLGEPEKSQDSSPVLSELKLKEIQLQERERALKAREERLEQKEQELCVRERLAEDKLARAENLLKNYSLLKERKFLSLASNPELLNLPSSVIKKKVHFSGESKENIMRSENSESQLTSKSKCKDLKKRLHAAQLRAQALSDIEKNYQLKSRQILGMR

[19] = molecular target: VRK1 (human) (UniProt Q99986)
[20] = molecular target: MARK3 (human) (UniProt P27448)
[21] = molecular target: EPHB1 (human) (UniProt P54762)
[22] = molecular target: HCK (human) (UniProt P08631)
[23] = molecular target: CDK3 CCNE1 (human) (UniProt Q00526+P24864)
[24] = molecular target: MAP3K10 (human) (UniProt Q02779)
Sequence of MAP3K10 (human) (Q02779 whole entry, looked up): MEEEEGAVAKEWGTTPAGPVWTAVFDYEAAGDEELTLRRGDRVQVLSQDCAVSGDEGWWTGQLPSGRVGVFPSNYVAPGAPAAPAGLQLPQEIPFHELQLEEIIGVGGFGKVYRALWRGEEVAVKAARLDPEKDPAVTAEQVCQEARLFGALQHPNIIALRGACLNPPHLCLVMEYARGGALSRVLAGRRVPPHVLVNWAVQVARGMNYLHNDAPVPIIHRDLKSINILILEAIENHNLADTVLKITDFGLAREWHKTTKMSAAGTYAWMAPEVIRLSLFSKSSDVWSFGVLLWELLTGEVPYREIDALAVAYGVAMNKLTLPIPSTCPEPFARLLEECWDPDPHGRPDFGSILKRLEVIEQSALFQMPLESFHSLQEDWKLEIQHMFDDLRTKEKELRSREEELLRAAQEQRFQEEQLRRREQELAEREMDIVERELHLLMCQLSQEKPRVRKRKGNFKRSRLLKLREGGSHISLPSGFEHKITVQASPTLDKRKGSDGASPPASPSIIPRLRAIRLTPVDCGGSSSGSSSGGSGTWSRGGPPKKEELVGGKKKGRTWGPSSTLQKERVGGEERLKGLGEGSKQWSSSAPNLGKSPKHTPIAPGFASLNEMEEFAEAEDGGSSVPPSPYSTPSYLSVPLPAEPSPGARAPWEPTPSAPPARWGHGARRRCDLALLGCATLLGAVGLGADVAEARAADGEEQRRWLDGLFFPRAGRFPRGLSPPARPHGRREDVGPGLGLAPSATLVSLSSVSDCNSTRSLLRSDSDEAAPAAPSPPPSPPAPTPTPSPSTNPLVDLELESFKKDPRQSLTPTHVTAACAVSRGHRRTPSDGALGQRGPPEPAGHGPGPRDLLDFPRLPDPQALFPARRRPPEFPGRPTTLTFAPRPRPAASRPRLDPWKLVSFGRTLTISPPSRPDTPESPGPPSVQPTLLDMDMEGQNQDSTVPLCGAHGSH

[25] = molecular target: NEK6 (human) (UniProt Q9HC98)
[26] = molecular target: LYN (human) (UniProt P07948)
Sequence of LYN (human) (P07948 whole entry, looked up): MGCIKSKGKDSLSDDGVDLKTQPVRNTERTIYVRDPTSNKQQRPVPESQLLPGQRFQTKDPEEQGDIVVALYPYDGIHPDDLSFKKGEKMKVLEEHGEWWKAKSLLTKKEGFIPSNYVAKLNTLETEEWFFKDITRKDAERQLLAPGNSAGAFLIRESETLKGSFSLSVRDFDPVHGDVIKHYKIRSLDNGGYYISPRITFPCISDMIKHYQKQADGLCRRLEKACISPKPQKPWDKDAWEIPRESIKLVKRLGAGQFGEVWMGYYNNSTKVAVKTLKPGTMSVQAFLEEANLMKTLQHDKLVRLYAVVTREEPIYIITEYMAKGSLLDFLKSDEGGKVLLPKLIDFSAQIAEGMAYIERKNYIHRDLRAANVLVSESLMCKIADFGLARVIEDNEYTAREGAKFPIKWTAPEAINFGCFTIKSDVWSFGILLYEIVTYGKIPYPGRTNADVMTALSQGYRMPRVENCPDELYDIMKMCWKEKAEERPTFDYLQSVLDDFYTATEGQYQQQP

[27] = molecular target: MAPK8 (human) (UniProt P45983)
Sequence of MAPK8 (human) (P45983 whole entry, looked up): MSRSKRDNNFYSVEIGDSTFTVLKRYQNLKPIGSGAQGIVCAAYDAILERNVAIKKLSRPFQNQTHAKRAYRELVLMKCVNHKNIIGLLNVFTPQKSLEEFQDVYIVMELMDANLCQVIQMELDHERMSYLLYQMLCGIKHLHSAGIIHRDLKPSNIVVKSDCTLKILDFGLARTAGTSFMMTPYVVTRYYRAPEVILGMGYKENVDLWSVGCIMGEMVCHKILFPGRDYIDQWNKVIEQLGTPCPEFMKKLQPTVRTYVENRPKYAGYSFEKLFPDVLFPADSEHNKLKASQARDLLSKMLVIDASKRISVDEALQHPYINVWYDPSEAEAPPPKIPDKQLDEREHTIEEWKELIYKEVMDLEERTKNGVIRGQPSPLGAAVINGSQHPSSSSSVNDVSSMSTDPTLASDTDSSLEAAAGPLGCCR

[28] = molecular target: RET (human) (UniProt P07949)
[29] = molecular target: CLK1 (human) (UniProt P49759)
[30] = molecular target: CLK2 (human) (UniProt P49760)
[31] = molecular target: TAOK1 (human) (UniProt Q7L7X3)
[32] = molecular target: PHKG1 (human) (UniProt Q16816)
[33] = molecular target: LIMK1 (human) (UniProt P53667)
[34] = molecular target: MAP3K5 (human) (UniProt Q99683)
[35] = molecular target: MAP4K5 (human) (UniProt Q9Y4K4)
[36] = molecular target: MLTK (human) (UniProt Q9NYL2)
[37] = molecular target: ULK1 (human) (UniProt O75385)
[38] = molecular target: PAK3 (human) (UniProt O75914)
[39] = molecular target: RPS6KA6 KD1 KD2 (human) (UniProt Q9UK32)
[40] = molecular target: CLK3 (human) (UniProt P49761)
[41] = molecular target: RPS6KA5 KD2 (human) (UniProt O75582)
[42] = molecular target: ULK2 (human) (UniProt Q8IYT8)

Sequence of TGFBR1 (human) (P36897 whole entry, looked up): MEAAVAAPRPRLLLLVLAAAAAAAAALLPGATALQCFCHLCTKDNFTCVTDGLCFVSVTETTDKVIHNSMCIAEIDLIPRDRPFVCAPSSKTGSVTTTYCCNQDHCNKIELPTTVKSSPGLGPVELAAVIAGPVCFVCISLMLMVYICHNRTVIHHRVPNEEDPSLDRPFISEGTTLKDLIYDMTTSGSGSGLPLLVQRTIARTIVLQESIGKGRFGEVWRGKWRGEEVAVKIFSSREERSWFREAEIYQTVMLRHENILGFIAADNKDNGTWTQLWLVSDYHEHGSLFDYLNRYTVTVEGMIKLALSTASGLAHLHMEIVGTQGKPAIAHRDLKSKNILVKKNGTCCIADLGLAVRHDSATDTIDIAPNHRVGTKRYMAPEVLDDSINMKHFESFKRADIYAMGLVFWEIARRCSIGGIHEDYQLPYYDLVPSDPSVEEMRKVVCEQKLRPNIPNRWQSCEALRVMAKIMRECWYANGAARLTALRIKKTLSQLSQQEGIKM

Oc1ccc(-c2nc(-c3ccc(F)cc3)c(-c3ccncc3)[nH]2)cc1
residual activity [1]: 96.2%
residual activity [2]: 108%
residual activity [3]: 106%
residual activity [4]: 98.4%
residual activity [5]: 87% and 90.4%
residual activity [6]: 102%
residual activity [7]: 99.3%
residual activity [8]: 107%
residual activity [9]: 101%
residual activity [10]: 98.6%
residual activity [11]: 89%
residual activity [12]: 97.3%
residual activity [13]: 98%
residual activity [14]: 95.5%
residual activity [15]: 96.2%
residual activity [16]: 106%
residual activity [17]: 96.2%
residual activity [18]: 101%
residual activity [19]: 98.7%
residual activity [20]: 105%
residual activity [21]: 96.8%
residual activity [22]: 97.6%
residual activity [23]: 96.7%
residual activity [24]: 32.8%
residual activity [25]: 99.4%
residual activity [26]: 94.8% and 98.4%
residual activity [27]: 98%
residual activity [28]: 89.3%
residual activity [29]: 107%
residual activity [30]: 105%
residual activity [31]: 98.5%
residual activity [32]: 94.2%
residual activity [33]: 91.4%
residual activity [34]: 105%
residual activity [35]: 96.6%
residual activity [36]: 98.8%
residual activity [37]: 89%
residual activity [38]: 98.7%
residual activity [39]: 110%
residual activity [40]: 101%
residual activity [41]: 107%
residual activity [42]: 97.3%

Cc1ccc(NC(=O)c2ccc(CN3CCN(C)CC3)cc2)cc1Nc1nc(-c2cccnc2)cs1
residual activity [1]: 96.3%
residual activity [2]: 98.5%
residual activity [3]: 83.2%
residual activity [4]: 102%
residual activity [5]: 77.6% and 93.8%
residual activity [6]: 98.8%
residual activity [7]: 109%
residual activity [8]: 96.2%
residual activity [9]: 94.1%
residual activity [10]: 103%
residual activity [11]: 97.3%
residual activity [12]: 92.4%
residual activity [13]: 102%
residual activity [14]: 103%
residual activity [15]: 98.9%
residual activity [16]: 101%
residual activity [17]: 101%
residual activity [18]: 96.7%
residual activity [19]: 97.4%
residual activity [20]: 100%
residual activity [21]: 94.9%
residual activity [22]: 55.7%
residual activity [23]: 90.2%
residual activity [24]: 102%
residual activity [25]: 91.3%
residual activity [26]: 16.2% and 18.7%
residual activity [27]: 107%
residual activity [28]: 96.4%
residual activity [29]: 101%
residual activity [30]: 86%
residual activity [31]: 98.5%
residual activity [32]: 92.2%
residual activity [33]: 98.1%
residual activity [34]: 95%
residual activity [35]: 97%
residual activity [36]: 86.8%
residual activity [37]: 97.7%
residual activity [38]: 106%
residual activity [39]: 103%
residual activity [40]: 93.6%
residual activity [41]: 103%
residual activity [42]: 103%
